Experimental data published in patent US10473646B2, “In vitro culturing or expanding human or animal tissue” (UNIVERSITAETSSPITAL BASEL, priority 2014, dated 2019).

Columns and labels:
Format in all cases: cell-based, human
[1] = test system: tumor infiltrating lymphocytes (TILs) in Luminal A Breast Cancer (MAM18); experiment: PHA stimulation of tumor infiltrating lymphocytes in in vitro cultured tumor chunks (immunohistochemistry CD45, CD3, CD68); details: 1 ng/mL added at day 0, 7 days
Experimental: One important component of the tumor microenvironment is represented by the tumor infiltrating lymphocytes (TILs) that for some tumor types plays an important role by determining the patient prognosis and it is gaining a major attention in the so called cancer immune-therapy. By using PHA (Phytohemagglutinin), TILs are stimulated in their metabolic and proliferative activity, in order to understand if it was possible their stimulation inside the in vitro cultured tumor chunks. The PHA (1 ng/mL) is added at the beginning of the bioreactor culture (day 0).
These raise the possibility to study immunological question or test cancer immunotherapies on in vitro cultured tumor specimens.

[2] = test system: Luminal A breast cancer tissue; experiment: Estrogen supplementation effect on in vitro culture of Luminal A breast cancer tissue chunks; details: 200 ng/mL, medium with 10% autologous serum
Experimental: (§1) The system is tested mainly for colorectal cancer and Luminal A breast cancer. Thereby a tissue specimen is manually cut in small chunks at a size of 1 mm to 2 mm per side. The pieces are placed in between two collagen scaffolds having a diameter of 8 mm to create an assembly or “sandwich” that it is then placed in a perfusion chamber of the 3D perfusion bioreactor. For each bioreactor, 8-10 mL of culture media are used. The chunks are cultured for 10 to 20 days without medium change.
(§2) Thereby, essentially the same or similar methods and procedures are applied as described hereinbefore in connection with the second example directed to colorectal cancer tissue.
(§3) Luminal A breast cancer is defined as estrogen receptor (ER) positive, progesterone receptor (PR) positive, human epidermal growth factor receptor 2 (HER2) negative and with few proliferating tumor cells (low % of Ki67 positive cells). This type of tumor requires estrogen as growth factor for its survival and expansion. The downsized tissue or tissue chunks are cultured in a medium containing 10% of human autologous serum (AS), therefore receiving all the growth factors comprising the estrogen. […]
The estrogen supplementation effect on in vitro culture is evaluated. […]

[3] = test system: Luminal A breast cancer tissue; experiment: In-vitro drug test on Luminal A breast cancer tissue chunks cultured in 3D perfusion bioreactor; details: 100 nM, added at day 0 of bioreactor culture
Experimental: as §1, §2, §3

Phytohemagglutinin [PHA]
presence of TILs after PHA treatment (CD45, CD3, CD68 staining, FIG. 14) [1]: the presence of TILs is still detectable

2-Estradiol
survival and proliferation of the tissue with extra estrogen supplementation (E+) versus without (E-) [2]: do not show any particular difference

C[C@]12CC[C@@H]3c4ccc(O)cc4C[C@@H](CCCCCCCCC[S+]([O-])CCCC(F)(F)C(F)(F)F)[C@H]3[C@@H]1CC[C@@H]2O (stereo partly drawn) [Fulvestrant]
effect of anti-estrogen receptor drug treatment on in vitro cultured tumor tissue (FIG. 13) [3]: there is an effect
